Experimental data published in ChEMBL document CHEMBL5543118, “Optimization of Potent Ligands for the E3 Ligase DCAF15 and Evaluation of Their Use in Heterobifunctional Degraders” (J Med Chem, 2024).
Active and inactive are the calls of the source. The calls are words filed in the database; no cut-off is given here.

Assays:
[1] = Lipophilicity, logD of the compound in octanol/water at pH 7.4 by shake flask method; type: physicochemical
[2] = Binding affinity to human His6-HALO-TEV DCAF15/DDB1/DDA1 complex assessed as displacement of fluorophore tagged indisulam analogue from complex measured after 1 hr by TR-FRET assay
[3] = target: DDB1- and CUL4-associated factor 15/RNA-binding protein 39 (Homo sapiens) (UniProt Q14498+Q66K64); assay: PROTAC activity at RBM39/DCAF15 E3 ligase (unknown origin) assessed as degradation at 0.1 to 10 uM by Western blotting analysis; type: cell-based; conditions: HEK293, dose 0.1-10 µM
DDB1- and CUL4-associated factor 15/RNA-binding protein 39 (Homo sapiens), sequence (Q14498 whole entry, looked up): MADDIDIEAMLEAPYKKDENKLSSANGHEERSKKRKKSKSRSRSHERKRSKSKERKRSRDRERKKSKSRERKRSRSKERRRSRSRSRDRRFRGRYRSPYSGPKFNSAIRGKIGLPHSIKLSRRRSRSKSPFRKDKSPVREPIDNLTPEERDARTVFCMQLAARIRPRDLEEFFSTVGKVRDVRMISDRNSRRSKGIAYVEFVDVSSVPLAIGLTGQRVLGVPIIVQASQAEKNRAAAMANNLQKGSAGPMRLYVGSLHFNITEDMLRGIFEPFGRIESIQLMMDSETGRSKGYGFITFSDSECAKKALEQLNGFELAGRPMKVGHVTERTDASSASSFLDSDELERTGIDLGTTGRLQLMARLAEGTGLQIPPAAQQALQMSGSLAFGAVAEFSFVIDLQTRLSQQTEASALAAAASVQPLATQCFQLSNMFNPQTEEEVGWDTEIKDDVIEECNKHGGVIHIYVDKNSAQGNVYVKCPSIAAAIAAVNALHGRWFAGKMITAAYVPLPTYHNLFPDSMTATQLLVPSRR
DDB1- and CUL4-associated factor 15/RNA-binding protein 39 (Homo sapiens), sequence (Q66K64 whole entry, looked up): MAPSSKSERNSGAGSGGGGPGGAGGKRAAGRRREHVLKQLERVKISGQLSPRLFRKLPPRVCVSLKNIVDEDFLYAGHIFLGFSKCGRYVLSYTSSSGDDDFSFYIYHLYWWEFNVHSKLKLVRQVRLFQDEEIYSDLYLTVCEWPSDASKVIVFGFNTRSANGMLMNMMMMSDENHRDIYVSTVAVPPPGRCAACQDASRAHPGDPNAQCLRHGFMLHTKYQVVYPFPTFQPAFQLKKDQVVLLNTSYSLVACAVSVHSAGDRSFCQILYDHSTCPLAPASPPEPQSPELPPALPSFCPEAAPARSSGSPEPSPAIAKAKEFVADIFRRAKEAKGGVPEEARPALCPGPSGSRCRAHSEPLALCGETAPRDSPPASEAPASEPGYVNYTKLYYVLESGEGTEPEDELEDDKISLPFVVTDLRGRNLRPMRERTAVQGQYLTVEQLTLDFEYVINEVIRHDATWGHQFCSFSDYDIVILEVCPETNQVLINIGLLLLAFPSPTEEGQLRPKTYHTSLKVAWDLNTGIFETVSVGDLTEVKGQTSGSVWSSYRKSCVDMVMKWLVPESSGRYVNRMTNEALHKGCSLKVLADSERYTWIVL

[4] = target: T1, Bromodomain-containing protein 4/DDB1- and CUL4-associated factor 15 (Homo sapiens, UniProt O60885+Q66K64); assay: PROTAC activity at HiBiT tag-BRD4/DCAF15 E3 ligase (unknown origin) expressed in HEK293 cells in presence of (+)-JQ1 incubated for 24 hrs by HiBit degradation assay; type: cell-based
T1 sequence (Q66K64 whole entry, looked up, other chains not shown): as the sequence (Q66K64 whole entry, looked up) above

HEK293 = assay: Cytotoxicity against human HEK293 cells expressing HiBiT tag-BRD4 assessed as cell viability at 10 uM measured after 24 hrs; type: toxicity, cell-based; conditions: hek293, 24 h
[5] = Aqueous solubility of the compound in DMSO measured for 20 to 24 hrs; type: physicochemical; conditions: time 20-24 hrs
[6] = target: T1, Bromodomain-containing protein 4/DDB1- and CUL4-associated factor 15; assay: PROTAC activity at HiBiT tag-BRD4/DCAF15 E3 ligase (unknown origin) expressed in HEK293 cells in presence of MLN4924 incubated for 24 hrs by HiBit degradation assay; type: cell-based
[7] = target: T1, Bromodomain-containing protein 4/DDB1- and CUL4-associated factor 15; assay: PROTAC activity at HiBiT tag-BRD4/DCAF15 E3 ligase (unknown origin) expressed in HEK293 cells assessed as maximal degradation incubated for 6 hrs by HiBit degradation assay relative to control; type: cell-based
[8] = target: T1, Bromodomain-containing protein 4/DDB1- and CUL4-associated factor 15; assay: PROTAC activity at HiBiT tag-BRD4/DCAF15 E3 ligase (unknown origin) expressed in HEK293 cells incubated for 6 hrs by HiBit degradation assay; type: cell-based
[9] = target: T1, Bromodomain-containing protein 4/DDB1- and CUL4-associated factor 15; assay: PROTAC activity at BRD4/DCAF15 E3 ligase (unknown origin) assessed as maximal degradation incubated for 16 hrs by immunoblot analysis relative to control; type: protein assay
[10] = target: T1, Bromodomain-containing protein 4/DDB1- and CUL4-associated factor 15; assay: PROTAC activity at BRD4/DCAF15 E3 ligase (unknown origin) incubated for 16 hrs by immunoblot analysis; type: protein assay

Row | SMILES | logD [1] | IC50 [2] [nM] | further results
1 | CNC(=O)[C@H]1CCN(C(=O)c2oc(S(=O)(=O)Nc3ccc(Cl)c4c(Cl)c[nH]c34)cc2C)C1 | 2 | 692 | 
2 | CN(C)C(=O)c1nc(S(=O)(=O)Nc2ccc(Cl)c3c(Cl)c[nH]c23)cn1C | 2.2 | 842 | 
3 | CNC(=O)C1CCN(C(=O)c2oc(S(=O)(=O)Nc3ccc(Cl)c4c(Cl)c[nH]c34)cc2C)CC1 | 2.1 | 53 | Activity [3]: inactive; Activity [4]: Active; Activity (HEK293): Toxic
4 | Cc1ccc(NS(=O)(=O)c2cccc(C#N)c2)c2[nH]cc(C#N)c12 [E-7820] | 2.6 | 2320 | 
5 | Cc1cc(S(=O)(=O)Nc2ccc(Cl)c3c(Cl)c[nH]c23)oc1C(=O)N1CCCCC1 | 3.6 | 46 | 
6 | COc1ccc(NS(=O)(=O)c2cccc(C#N)c2)c2[nH]cc(C#N)c12 | 2.2 | > 100000 | 
7 | N#Cc1cccc(S(=O)(=O)Nc2ccc(F)c3c(C#N)c[nH]c23)c1 | 2 | 7010 | 
8 | N#Cc1cccc(S(=O)(=O)Nc2ccc(C#N)c3c(Cl)c[nH]c23)c1 | 1.7 | 4390 | 
9 | COCCNC(=O)c1oc(S(=O)(=O)Nc2ccc(Cl)c3c(Cl)c[nH]c23)cc1C | 2.8 | 505 | 
10 | Cc1cc(S(=O)(=O)Nc2ccc(Cl)c3c(Cl)c[nH]c23)sc1C(=O)N(C)C | 3.1 | 224 | 
11 | N#Cc1cccc(S(=O)(=O)Nc2ccc(Cl)c3c(Cl)c[nH]c23)c1 | 4 | 709 | 
12 | CNC(=O)C1CN(C(=O)c2oc(S(=O)(=O)Nc3ccc(Cl)c4c(Cl)c[nH]c34)cc2C)C1 | 1.9 | 979 | 
13 | CN(C)C(=O)c1oc(S(=O)(=O)Nc2ccc(Cl)c3c(Cl)c[nH]c23)cc1Cl | 2.3 | 395 | 
14 | Cc1coc(S(=O)(=O)Nc2ccc(Cl)c3c(Cl)c[nH]c23)c1 | 3.7 | 1180 | 
15 | CNC(=O)c1oc(S(=O)(=O)Nc2ccc(Cl)c3c(Cl)c[nH]c23)cc1C | 2.9 | 576 | 
16 | CN(C)C(=O)c1ccc(S(=O)(=O)Nc2ccc(Cl)c3c(Cl)c[nH]c23)o1 | 2.3 | 675 | 
17 | CNC(=O)[C@@H]1CCN(C(=O)c2oc(S(=O)(=O)Nc3ccc(Cl)c4c(Cl)c[nH]c34)cc2C)C1 | 2 | 279 | 
18 | Cc1cc(S(=O)(=O)Nc2ccc(Cl)c3c(Cl)c[nH]c23)oc1C(=O)N1CCN(C)CC1 | 2.2 | 393 | 
19 | N#Cc1cccc(S(=O)(=O)Nc2cc(Cl)cc3c(Cl)c[nH]c23)c1 | 3.8 | 1460 | 
20 | N#Cc1cccc(S(=O)(=O)Nc2ccc(Cl)c3c(C#N)c[nH]c23)c1 | 2.4 | 1550 | 
21 | Cc1cc(S(=O)(=O)Nc2ccc(Cl)c3c(Cl)c[nH]c23)oc1C(=O)N1CCC(C(=O)N2CCN(CC3CCN(C(=O)C[C@@H]4N=C(c5ccc(Cl)cc5)c5c(sc(C)c5C)-n5c(C)nnc54)CC3)CC2)CC1 | > 4 | 74 | solubility [5]: < 0.16 µM; Activity [6]: inactive; Emax [7]: 69%; DC50 [8]: 453 nM
22 | Cc1sc2c(c1C)C(c1ccc(Cl)cc1)=N[C@@H](CC(=O)NCCOCCOCCNC(=O)c1cccc(S(=O)(=O)Nc3ccc(C)c4c(C#N)c[nH]c34)c1)c1nnc(C)n1-2 |  |  | Emax [9]: 98%; DC50 [10]: 10800 nM
23 | Cc1cc(S(=O)(=O)Nc2ccc(Cl)c3c(Cl)c[nH]c23)oc1C(=O)N(C)C | 2.7 | 221 | 
24 | Cc1sc(S(=O)(=O)Nc2ccc(Cl)c3c(Cl)c[nH]c23)nc1C(=O)N(C)C | 1.5 | 506 | 
25 | Cc1sc(S(=O)(=O)Nc2ccc(Cl)c3c(Cl)c[nH]c23)cc1C(=O)N(C)C | 3 | 615 | 
